The values that follow come from PubChem BioAssay AID540269 (Sanford-Burnham Center for Chemical Genomics, 2011).

The source made the active and inactive calls. How the calls were made is not given here. Some results are limits rather than exact numbers.

For the assay, the target named is glucose-6-phosphate dehydrogenase-6-phosphogluconolactonase (Plasmodium falciparum 3D7). The experiment in a line: inhibition of P. falciparum G6PD activity – biochemical, kinetic NADPH detection, orthogonal assay, dose response (AID 540269). The note with it: purified PfG6PD-6PGL.
For `Cc1cc(SCC(=O)N/N=C/c2ccco2)nc2ccccc12`, the IC50 was > 80 µM (inactive).

Consider `CC(=O)Nc1cc2c(cc1[N+](=O)[O-])-c1ccccc1C2O` (centres undefined), for which the IC50 is > 80 µM (inactive).

With `O=C(Nc1ccc(N2CCN(C(=O)c3ccco3)CC2)c(Cl)c1)c1cc2ccccc2o1`, the IC50 is 53.8 µM.

Regarding `CCN(CC)CCn1c2ccccc2c(=O)c2c(O)ccc(O)c21`, the IC50 was 33.1 µM.

`CC(C)(C)c1ccc(O)c(O)c1`: the IC50 is 48.6 µM.

In the case of `CCOC(=O)c1c(C2COc3ccccc3O2)csc1NC(=O)c1ccco1` (centres undefined), the IC50 was > 80 µM (inactive).

With `N#Cc1ccc2sn(-c3ccccc3)c(=O)c2c1`, the half-maximal inhibitory concentration (IC50) was 14.8 µM.

Consider `COC1=C(OC)C(=O)C(Sc2ccc3ccccc3c2)=CC1=O`, for which the IC50 was 23.3 µM.

As for `CC(C)(C)NC(=O)COc1ccc(CNc2ccc3[nH]c(=O)[nH]c3c2)cc1`, the IC50 was 10.4 µM.

In the case of `COC(=O)CCC(=O)Nc1sc(Cc2ccccc2)c(C)c1C(N)=O`, the IC50 was 35.1 µM.

`Cc1ccc(C)c(-n2sc3ccc(F)cc3c2=O)c1`: the IC50 is 11.4 µM.

Take `CCOc1cc(CNc2ccc(N3CCCC3)cc2)cc(Cl)c1OC`: the IC50 was > 80 µM (inactive).

In the case of `O=C(Sc1n[nH]c(=O)[nH]c1=O)c1ccccc1`, the IC50 is 22.8 µM.

`CCOC(=O)CSc1nnc(NC(=O)c2cccc([N+](=O)[O-])c2)s1`: the IC50 is > 80 µM (inactive).

Regarding `C[C@]12CC[C@@H]3c4ccc(O)c(O)c4CC[C@H]3[C@@H]1CC[C@@H]2O`, the IC50 is 41.3 µM.

Turning to `CN(CCO)c1cc(Sc2nc3ccccc3s2)c2nonc2c1[N+](=O)[O-]`, the IC50 was > 80 µM (inactive).

As to `C=CCSc1nnc(NC(=O)c2ccc(Cl)nc2)s1`, the IC50 is > 80 µM (inactive).

In the case of `CCN=c1scc(C)n1/N=C/c1ccc(O)c(O)c1O`, the 50% inhibitory concentration (IC50) is 39.2 µM.

For `CN(C)c1ccc(C=c2c3cc([N+](=O)[O-])ccc3n3c2cc(-c2ccccc2)[n+]3C)cc1`, the IC50 is 35.1 µM.

As for `O=c1c2cc(F)ccc2sn1-c1ccccc1Cl`, the IC50 was 12.7 µM.

Consider `CC1=CC(=NOC(=O)/C=C/c2ccccc2)C=C(C)C1=O`, for which the IC50 was > 80 µM (inactive).

Take `CC(=O)OCCCNc1cc(Sc2nc3ccccc3s2)c2nonc2c1[N+](=O)[O-]`: the IC50 is 14.9 µM.

Take `O=C(Nc1ccc(N2CCCC2)cc1)c1cccc(-c2cc3ccccc3oc2=O)c1`: the IC50 is > 80 µM (inactive).

`Cc1ccc(-n2c(N)c(C(=O)N3CCN(C)CC3)sc2=S)cc1`: the IC50 is 70.6 µM.

In the case of `CCOc1ccc(NC(=O)Cn2sc3nc(C)cc(C)c3c2=O)cc1`, the IC50 was 37.5 µM.

With `C=C1C(=O)O[C@@H]2C[C@@H](C)[C@@H]3C=CC(=O)[C@@]3(C)[C@@H](OC(=O)CC(=O)O[C@H]3[C@@H]4C(=C)C(=O)O[C@@H]4C[C@@H](C)[C@@H]4C=CC(=O)[C@]43C)[C@H]12`, the IC50 was > 80 µM (inactive).

In the case of `COC(=O)CCC(=O)OC1(C)C(=O)C2=CN(c3ccc(OC)cc3)C(c3ccc(OC)cc3)=CC2=C(Br)C1=O` (centres undefined), the IC50 was > 80 µM (inactive).

Regarding `Cc1[nH]c2ccccc2c1/C=N/NC(=O)c1cccc(S(=O)(=O)Nc2ccccc2Cl)c1`, the IC50 was 59.3 µM.

Regarding `Cc1ccc(C(=O)Nc2nnc(S(=O)(=O)N3CCC(C)CC3)s2)cc1`, the IC50 is 24.1 µM.

As to `COc1cc(-c2cc(=O)c3c(O)c(OC)c(OC)c(O)c3o2)ccc1O`, the IC50 is 40.3 µM.

Consider `O=C(Nc1nnc(S(=O)(=O)N2CCOCC2)s1)c1ccc(F)cc1`, for which the IC50 was 56.9 µM.

For `COc1cccc(-c2c(C(=O)N/N=C/c3ccc(C)o3)nnn2-c2nonc2N)c1`, the IC50 is 12.7 µM.

`COc1ccc(-n2sc3ccccc3c2=O)cc1`: the IC50 was 14.7 µM.

Take `Cc1nc2ccccn2c1-c1ccnn1S(=O)(=O)c1ccc(F)cc1`: the IC50 is > 80 µM (inactive).

Take `Cc1cccc(-n2c(=S)[nH]c3sc4c(c3c2=O)CCc2ccccc2-4)c1`: the IC50 is 40.9 µM.

`CCOc1ccc(S(=O)(=O)Nc2cc(SCC(=O)O)c(O)c3ccccc23)cc1`: the IC50 is 48.2 µM.

For the molecule `O=C(Nc1nnc(S(=O)(=O)N2CCCC2)s1)c1cccc([N+](=O)[O-])c1`, the IC50 was > 80 µM (inactive).

Turning to `O=C(CCc1ccc(S(=O)(=O)N2CCOCC2)cc1)N/N=C/c1ccc(O)c(O)c1O`, the IC50 is 36.5 µM.

Take `Nc1ccc(N(CCO)CCO)cc1`: the IC50 was > 80 µM (inactive).

Turning to `COc1cccc(CNc2ccc3[nH]c(=O)[nH]c3c2)c1OCc1ccc(F)cc1`, the IC50 is > 80 µM (inactive).

For `NC(=O)N/N=C/c1ccc(-n2nncc2-c2ccc(Cl)cc2)cc1`, the IC50 is > 80 µM (inactive).

With `O=C(Cc1ccccc1)NCC(=O)OCC(=O)c1ccc([N+](=O)[O-])cc1`, the IC50 is 57.9 µM.

`COc1cccc(C2(c3cccc(OC)c3)CC2C(=O)Nc2ccc(F)cc2)c1` (centres undefined): the IC50 is > 80 µM (inactive).

With `CCNc1cc2c(cc1O)CCC1C2CCC2(C)C(O)CCC12` (centres undefined), the IC50 is 35.7 µM.

For the molecule `COc1c(O)c(O)c2oc(-c3ccccc3)cc(=O)c2c1OC`, the IC50 is 66.9 µM.

With `O=C(CNC(=O)c1ccc(Br)cc1)NCC(=O)OCC(=O)c1ccc([N+](=O)[O-])cc1`, the IC50 is > 80 µM (inactive).

Regarding `COC(=O)c1cc2c(n1S(=O)(=O)c1ccc(C)cc1)C(=O)C(=O)c1[nH]cc(C(=O)OCc3ccccc3)c1-2`, the IC50 is > 80 µM (inactive).

Turning to `CCC(=O)OCOc1ccc(/C=C2/CCC(CN(C)C)C2=O)cc1` (centres undefined), the IC50 is 36.4 µM.

On to `C[n+]1c(-c2ccccc2)cc2c(=Cc3ccc([N+](=O)[O-])cc3)c3ccccc3n21`, for which the IC50 is 51.5 µM.

As to `CC(=O)Nc1cc(OC(C)=O)c2nonc2c1OC(C)=O`, the IC50 is > 80 µM (inactive).

On to `CN1CCc2cccc3c2[C@@H]1Cc1ccc(O)c(O)c1-3`, for which the IC50 is > 80 µM (inactive).

With `O=c1c2ccccc2sn1-c1ccc(S(=O)(=O)N2CCCCC2)cc1`, the IC50 was > 80 µM (inactive).

For the molecule `CC(=NNC(=S)N1CCN(c2ccccn2)CC1)c1nccs1`, the IC50 was > 80 µM (inactive).

With `CCc1ccccc1N1CSC2=C(C#N)C(c3ccccc3F)CC(=O)N2C1` (centres undefined), the IC50 is > 80 µM (inactive).

Regarding `C=CCc1c(C)[nH]c(=S)c(C#N)c1C`, the IC50 is > 80 µM (inactive).

`CC1CN(c2ccccc2)NC1=O` (centres undefined): the IC50 is > 80 µM (inactive).

For the molecule `COC1=C(Br)C(=O)c2nc(C)ccc2C1=O`, the IC50 was > 80 µM (inactive).

With `O=C(CNc1ccc2c(c1)OCO2)N/N=C\c1cn(Cc2ccccc2)c2ccccc12`, the IC50 is > 80 µM (inactive).

Consider `CCNc1ccccc1CP(=O)(c1ccccc1)c1ccccc1O` (centres undefined), for which the IC50 is > 80 µM (inactive).

As for `O=c1c2cc(C(F)(F)F)ccc2sn1-c1ccccc1`, the 50% inhibitory concentration (IC50) is 20.3 µM.

Turning to `COc1cc(-c2nnc3n2N=C(c2ccccc2)CS3)cc(OC)c1OC`, the IC50 is > 80 µM (inactive).

Regarding `O=C(Nc1ccc(N2CCOCC2)c(Cl)c1)c1ccc(Cl)cc1`, the IC50 was > 80 µM (inactive).

As to `c1cncc(CNc2ccc3c(c2)OCO3)c1`, the IC50 was > 80 µM (inactive).

In the case of `COc1ccc2ccccc2c1C1CC(=O)N2CN(C3CCCCC3)CSC2=C1C#N` (centres undefined), the IC50 is > 80 µM (inactive).

Regarding `COc1cc(N=c2ssnc2Cl)c(OC)cc1Cl`, the IC50 was 36.8 µM.

On to `NS(=O)(=O)c1ccc(-c2ccc(C=C3C(=O)NC(=O)NC3=O)o2)cc1`, for which the IC50 was 40.2 µM.

For `Cc1ccc(NNS(=O)(=O)c2ccc(C)cc2)cc1`, the IC50 is 36.8 µM.

In the case of `Clc1ccc2nc(-c3ccc(Br)s3)cn2c1`, the IC50 is > 80 µM (inactive).

For `COc1cc(C(=O)ON=C2C=C(C)C(=O)C(C)=C2)cc(OC)c1OC`, the IC50 was > 80 µM (inactive).

As to `Cc1c(N=C2C=C(Br)C(=O)C(Br)=C2)c(=O)n(-c2ccccc2)n1C`, the IC50 was > 80 µM (inactive).

As to `O=C(O)c1ccc(-n2c(-c3cc(-c4ccco4)[nH]n3)n[nH]c2=S)cc1`, the IC50 was 40.8 µM.

For `O=C(Nc1nc(-c2ccncc2)cs1)C1COc2ccccc2O1` (centres undefined), the IC50 was 22.4 µM.

For the molecule `CSc1nnc(NC(=O)c2ccc3c(c2)OCO3)s1`, the IC50 was 27.1 µM.

For `CC(C)Cn1c([N+](=O)[O-])nc2c1c(=O)[nH]c(=O)n2C`, the IC50 is > 80 µM (inactive).

As for `Cc1ccc2nc(SCC(=O)N/N=C/c3ccco3)cc(C)c2c1`, the IC50 is > 80 µM (inactive).

Consider `Cc1ccccc1OCC(=O)N/N=C/c1ccc(Sc2nc3ccccc3s2)o1`, for which the IC50 is > 80 µM (inactive).

As to `c1cc(CNc2ccc3c(c2)OCO3)ccn1`, the IC50 was > 80 µM (inactive).

As to `CC1CCc2[nH]c3ccc(C(=O)N(C)CC(=O)Nc4ccccc4C(F)(F)F)cc3c2C1` (centres undefined), the IC50 is > 80 µM (inactive).

Turning to `O=C(Nc1nnc(S(=O)(=O)N2CCCCCC2)s1)c1cccc(Br)c1`, the IC50 is 14.1 µM.

Regarding `CCCCC1C(=O)N(c2ccccc2)N(c2ccc(O)cc2)C1=O` (centres undefined), the IC50 was > 80 µM (inactive).

As to `CC(Cc1ccc(O)c(O)c1)C(C)Cc1ccc(O)c(O)c1` (centres undefined), the IC50 is 54.9 µM.

As for `O=C(Nc1ccc([N+](=O)[O-])cc1Cl)c1cc(Cl)ccc1O`, the IC50 is > 80 µM (inactive).

For the molecule `O=c1c2ccccc2sn1-c1ccccc1`, the IC50 was 9.73 µM.

Consider `Cc1ccc(NC(=O)c2cc(N3C(=O)C=CC3=O)ccc2Cl)cc1C`, for which the IC50 was 43.5 µM.

For the molecule `c1ccc(-c2cn3c(n2)CCc2ccc4cccnc4c2-3)cc1`, the IC50 is > 80 µM (inactive).

For `CCC1(CC)Cc2ccccc2C(N)=C1C#N`, the IC50 is > 80 µM (inactive).

Turning to `Cc1ccc(NC(=O)c2cc(C)n(-c3ccccc3)c2C)cc1`, the IC50 is > 80 µM (inactive).

For the molecule `Oc1ccc(-c2cn3c(n2)SCC3)cc1O`, the IC50 was 46.5 µM.

`COc1ccc(OC)c2c1C(=O)C(Cl)=C(Cl)C2=O`: the IC50 is 20.3 µM.

On to `COc1cc(N(C)C)ccc1C=c1c2ccccc2n2c1cc(-c1ccccc1)[n+]2C`, for which the IC50 is > 80 µM (inactive).

Turning to `O=C1Nc2cc(C(=O)NCCCN3CCCC3)ccc2S/C1=C\c1ccccc1`, the IC50 was 22.3 µM.

On to `O=C(Nc1nnc(C2CC2)s1)c1ccc(Cl)nc1`, for which the IC50 is 70.1 µM.

For the molecule `O=c1c2ccccc2sn1-c1ccc(Cl)cc1`, the IC50 is 17.1 µM.

With `Cc1ccc(-n2sc3ccccc3c2=O)cc1`, the IC50 was 19.1 µM.

A word on the IC50: it is the concentration at which inhibition is half-maximal.
